Experimental data reported in US20080195033A1, “Method of Delivery of Therapeutic Metal Ions, Alloys and Salts” (INTERNATIONAL BIO-THERAPEUTIC RESEARCH INC., priority 2004, published 2008).

Tests used:
[1] = system: CEM-SS infected with HIVIIIB; assay: Cell viability of HIV-infected CEM-SS cells by trypan blue dye exclusion; format: cell-based, HIV-1; settings: 1.0 mA; for Cell Viability, HIV-Infected Cells: 7 days post exposure
Procedure: (§1) In one test performed according to the invention, infection studies were carried out in a Level III facility in vitro using HIV-infected and noninfected cells. To establish infection, a viral dose of MOI 0.5 was added to a culture flask. The supernatants of control and test flasks were tested for the presence of the p24 antigen. Cells were then incubated in the presence and absence of silver ions produced by passing current through a sterile silver electrode present in the culture flask. Current was applied for 0, 1, 5, 10 and 30 minutes after incubation of virus with the cells. Cells were then be maintained in culture for 7 days and the concentration of p24 antigen in the supernatant was determined.
(§2) The cells used for such studies were CEM-SS cultured human lymphoblasts to allow detection and monitoring of HIV-induced synceytium. Cells were grown in enriched RPMI medium (20% fetal calf serum; FCS) and maintained in a 5% CO2 enriched tissue culture incubator at 37 degrees Celsius. Infection was conducted at a Multiplicity Dose of 0.5 using HIVIIIB prepared from previously infected CEM-SS stock suspensions.
(§3) In this test performed according to the invention, a silver catheter was introduced by drill into the tissue culture flask, sealed and the flask was then gas-sterilized. Silver ions were generated by connecting the silver electrode to a purpose-built device designed by one of the investigators (RE) powered by a 9 volt battery and designed to generate a steady current of 1.0 milliamp.
(§4) Cell viability was determined using trypan blue dye exclusion. The HIV p24 antigen concentrations in the culture supernatants were determined using an antigen capture assay.
(§5) Each experiment was performed in triplicate and repeated three times. Differences between cells exposed and unexposed to silver ions were compared by analysis of variance.

[2] = system: HIVIIIB in CEM-SS cells (p24 antigen); assay: HIV p24 antigen in culture supernatant by antigen capture assay; format: cell-based, HIV-1
Procedure: as §1, §2, §3, §4, §5

silver ions
Increase in cell viability of infected cells compared to similar cells not subjected to the silver ion treatment ([1]; 10 minutes of silver ion exposure): greater than 25% | Cell Viability, HIV-Infected Cells ([1]; five minute treatment): 45% alive | Cell Viability, HIV-Infected Cells ([1]; one minute treatment): 37% alive | Cell Viability, HIV-Infected Cells ([1]; one minute treatment, listed as Silver Ions): 37% | Cell Viability, HIV-Infected Cells ([1]; ten minute treatment): 54% alive | Cell Viability, HIV-Infected Cells ([1]; ten minute treatment, listed as Silver Ions): 54% | Cell Viability, HIV-Infected Cells ([1]; thirty minute treatment): 28% alive | Change in p24 antigen (in words) ([2]; after 10 minutes of 1.0 mA current flow): decline | Decline in the concentration of p24 antigen in HIV-exposed cultures ([2]; over thirty minutes, 1.0 mA, p<0.05): 56% | Change in p24 concentration (in words) ([2]; silver ion incubation for five minutes): initial increase
